pIC50: −log10 of the molar value. *1 amine or outer side, *2 acyl side, *3 side chain or, on linkers, in order; H or OH if unused. Where a SMILES comes first, the peptide text is derived from it. [ ]: non-standard residue; d: D form. X1 = CC(C)C[C@H](N[*:1])[C@@H](O)C[C@H](C(=O)[*:2])C(C)C
Biological target: Beta-secretase 1 (Homo sapiens, UniProt P56817)
Sequence (P56817 whole entry): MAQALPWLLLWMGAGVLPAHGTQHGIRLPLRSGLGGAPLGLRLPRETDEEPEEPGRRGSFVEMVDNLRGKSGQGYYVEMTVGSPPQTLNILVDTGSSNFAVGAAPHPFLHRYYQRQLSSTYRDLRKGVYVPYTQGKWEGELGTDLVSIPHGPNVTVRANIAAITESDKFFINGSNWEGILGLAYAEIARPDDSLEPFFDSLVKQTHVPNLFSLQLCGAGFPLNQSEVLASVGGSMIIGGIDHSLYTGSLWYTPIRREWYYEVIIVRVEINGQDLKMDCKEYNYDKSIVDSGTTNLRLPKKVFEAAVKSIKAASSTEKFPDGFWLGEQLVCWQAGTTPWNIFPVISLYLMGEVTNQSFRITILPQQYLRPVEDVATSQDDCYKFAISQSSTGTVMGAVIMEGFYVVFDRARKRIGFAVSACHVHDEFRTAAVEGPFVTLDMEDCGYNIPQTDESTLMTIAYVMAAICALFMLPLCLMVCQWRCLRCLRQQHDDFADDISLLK

Row | pIC50 | SMILES
1 | 7.34 | CCC(C)[C@H](NC(=O)[C@@H](N)CCC(N)=O)C(=O)N[C@@H](CC(=O)O)C(=O)N[C@@H](CC(C)C)[C@@H](O)C[C@@H](C)C(=O)N[C@@H](C)C(=O)N[C@@H](CCC(=O)O)C(=O)N[C@@H](Cc1ccccc1)C(=O)O (single isomer, unassigned)
2 | 6.78 | CC(C)C[C@H](NC(=O)[C@H](CC(N)=O)NC(=O)[C@@H](NC(=O)[C@@H](N)CCC(=O)O)C(C)C)[C@@H](O)C[C@H](C(=O)N[C@@H](C)C(=O)N[C@@H](CCC(=O)O)C(=O)N[C@@H](Cc1ccccc1)C(=O)O)C(C)C (H-EVN[X1]AEF-OH)
